Results on one substance are retold here after US20250269049A1, “CD20-TARGETED ANTIBODY COUPLING PHARMACEUTICAL PREPARATION” (priority 2017, published 2025).

Where “and” joins values, the source holds several entries; their conditions need not be identical. Equal entries are not always repeated.

Experiment [1] has as its system Daudi cell xenografts tumor. As to the kind of experiment: In vivo anti-tumor activity test, Daudi graft tumor. Also on record: species or system BALB/c nude mice. As to conditions: tail vein, 6 injections over 21 days, two batches (first and second), listed as TRS005. The text has this: Experiment 3 In vivo Anti-Tumor Activity Test
1. Test animals and housing environment
Species: BALB/c nude mice
Gender of animals: male mice.
Age at acquisition: 6-8 weeks; Body weight at the beginning of the experiment: 18˜20 g.
Housing environment: SPF grade.
Daudi cells were purchased from the cell bank of the Type Culture Collection of the Chinese Academy of Sciences.
3. TEST SAMPLE: The Test Sample was Selected From Two Batches of the Product Prepared in Example 2.
Under aseptic conditions of 5% CO2 and 37° C., Daudi cells were cultured with PRMI1640 medium containing 10% fetal bovine serum, respectively, and expanded to 5.0×10^8 cells. Cells were collected by centrifugation and mixed 1:1 with Matrix gel and inoculated subcutaneously into the right side of the rib cage of BALB/c nude mice at 1×10^7 cells/200 μl/animal.
When the mean tumor volume reached 100 mm3, the group was randomized: […]
There were 10 nude mice in each group. Then the administration of the drug was started by tail vein administration, and the body weight of BALB/c nude mice and the long and short diameters of the tumors were measured, and recorded during the administration. […]
Tumor volume and Tumor weight were expressed as Mean±Standard Error of the Mean (Mean±SEM). Statistical tests were analyzed by one-way analysis of variance (ANOVA), with p<0.05 considered significant and p<0.01 considered highly significant.

The test system of experiment [2] is Raji cells. As to the kind of experiment: Internalization efficacy by flow cytometry, Raji cells. The class given is cell-based. As to conditions: 10 μg/mL, 37° C. 2 h, FIG. 2D. The procedure:
(§1) Experiment 1: Method for Internalization Efficacy of Antibody-Drug Conjugate (TRS005) by Flow Cytometry
(§2) Cell preparation: take logarithmic growth phase Raji cells or Ramos cells, centrifuge at 1000 rpm for 5 minutes, resuspend using DPBS, adjust the density of live cells to 2×10^6 cells/mL, and divide into 1.5 mL centrifuge tubes, 1 mL/tube.
(§3) Sample dilution: The sample to be tested (TRS005 with a DAR of approximately 4.2) was diluted to 1000 μg/mL, 10 μL was added to each 1 mL of cell suspension, and blown and mixed to make the final concentration of the sample 10 μg/mL.
(§4) Incubation the cell suspension to which the samples were added was placed on ice and ice-bath for 30 minutes. […]
(§5) Cells from the negative control group treated with ice bath were gating and the average fluorescence intensity of cells in each tube at FL1 was recorded. […]
(§6) The percentage of endocytosis of the samples was calculated based on the average fluorescence intensity according to the following formula.
(§7) Internalization efficacy ratio %=(mean fluorescence intensity of negative control group−mean fluorescence intensity of experimental group)/mean fluorescence intensity of negative control group×100%.
On the technique in general: A flow cytometer gives signals particle by particle.

In experiment [3] the test system is Ramos cells. As to the kind of experiment: In vitro cytotoxicity assay (CCK-8). The class given is cell-based. As to conditions: about 72 hours incubation, parallel detections 1 and 2. The text has this:
Experiment 2: In vitro Cytotoxicity Assay
FBS, purchased from Lonsera, product number S711-001S;
Streptomycin/Penicillin Dual Antibody, purchased from HyClone, Lot: SV30010;
DPBS (Dulbecco's Phosphate Buffer Solution) was purchased from Gibco, product number 14190-136;
CCK-8 reagent, purchased from Biolite, product number 35004.
Ramos cells were purchased from COBIOER BIOSCIENCES CO., LTD.
Cell culture and plating: Ramos cells with viability greater than 80% in the logarithmic growth phase up to 30 generations were selected for the experiment. Ramos cells were removed from culture flasks and added to 50 mL centrifuge tubes and blown to mix. 1000 rpm (≈188g) centrifugation was performed for 5-6 minutes. The supernatant was discarded and the cells were resuspended with the appropriate volume of diluent. […]
Plate reading: Load the plate into the enzyme labeling instrument and read the plate with 450 nm as the reading wavelength and 650 nm as the reference wavelength.
Data processing: The IC50 value was calculated using a four-parameter fitting model with the concentration value as the horizontal coordinate and the difference between the absorbance value at 450 nm minus the absorbance value at 650 nm as the vertical coordinate.

Experiment [4] has as its system Ramos cells. Nature of the experiment: Internalization efficacy by flow cytometry, Ramos cells. The note with it: 10 μg/mL, 37° C. 2 h, FIG. 2C. The class given is cell-based. How it is done:
as §1, §2, §3, §4, §5, §6, §7

For the substance “Example 2: Anti-CD20 antibody TRS001 (rituximab biosimilar) conjugated to MMAE via maleimidocaproyl-valine-citrulline-p-aminobenzyloxycarbonyl linker; preferred DAR distribution”, the tumor inhibition rate in experiment [1] (0.75 mg/kg) was 91.08% and 92.09%; in experiment [1] (1.5 mg/kg), 97.15% and 97.71%. In addition, the internalization efficacy result in experiment [2] and in experiment [4] was “good internalization efficacy” each time. The IC50 in experiment [3] was 0.0589 µg/mL and 0.0648 µg/mL.

The IC50 is the concentration that inhibits the measured activity by half. A high value points to a need for much substance.
